Patent US10328161B2, “Luciferin derivatives from bicyclic reactants and aminothiol derivatives and methods of use thereof” (The Regents of the University of California, priority 2012, dated 2019)

Experiments:
[1] = test system: PC3M-luc cells; test: Signal produced from endogenous L-cysteine in PC3M-luc cells; type: cell-based; conditions: HCBT alone 0-50 μM
Method: (§1) A Xenogen IVIS Spectrum instrument (Caliper Life Sciences, Hopkinton, Mass.) was used for bioluminescent imaging in all cellular experiments. PC3M-luc cells (kindly provided by Chris Contag, Stanford University) were cultured in Dulbecco's Modified Eagle Medium (DMEM) containing 10% Fetal Bovine Serum (FBS). Prior to assaying, cells were passed and plated (1.3-1.5×10^4 cells/well) in black 96-well plates with clear bottoms (Becton Dickinson and Company, Franklin Lakes, N.J.). Once the cells were ca. 95% confluent, reagents were added for bioluminescent assays.
PC3M-luc cells prepared as described above were washed with HBSS (25 mM glucose) prior to addition of HCBT and D-cysteine (0-50 μM, 1% DMSO) or HCBT alone (0-50 μM, 1% DMSO) in HBSS (25 mM glucose). The plate was immediately imaged for 2 h to determine the peak bioluminescent signal produced.

[2] = Selectivity assay for PCL-2: panel of various ROS; type: biochemical
Method: (§2) Millipore water was used to prepare all aqueous solutions. Luciferase (100 μg/mL) in 50 mM Tris buffer, pH 7.4, with 10 mM MgCl2, 0.1 mM ZnCl2, and 2 mM ATP was added to selectivity assay samples (described below) to determine the relative amount of luciferin formed during incubation. Measurements for bioluminescent assays were performed at 37° C. and were recorded using a Molecular Devices SpectraMax M2 plate reader (Sunnyvale, Calif.). Samples for bioluminescent measurements were placed in white, opaque 96-well plates, which were purchased from Corning Inc. (Corning, N.Y.). ATP was purchased from MP Biomedicals (Solon, Ohio) or Sigma-Aldrich (St. Louis, Mo.), and luciferase was purchased from Promega (Madison, Wis.). Caspase enzymes were purchased from Sigma-Aldrich (St. Louis, Mo.), and caspase inhibitors were purchased from MP Biomedicals (Solon, Ohio).
(§3) Various ROS (100 μM) were administered to PCL-2 or HCBT (5 μM) in Tris buffer (50 mM, pH 7.4) with or without 10 mM MgCl2 and 0.1 mM ZnCl2. […] After an additional 15 min incubation, 100 μL of a Tris buffer (50 mM, pH 7.4) containing luciferase (100 μg/mL), 10 mM MgCl2, 0.1 mM ZnCl2, and 2 mM ATP was added to 100 μL of the PCL-2 or HCBT solutions and the bioluminescent signal was detected.

[3] = test system: PC3M-luc cells; test: Comparison of in situ luciferin formation and luciferin in PC3M-luc cells (intact and lysed); type: cell-based
Method: as §1
PC3M-luc cells prepared as described above were washed with HBSS (25 mM glucose) prior to addition of HCBT and D-cysteine (0-500 μM, 1% DMSO) or luciferin (0-500 μM, 1% DMSO) in HBSS (25 mM glucose). For experiments with lysed cells, 100 μL Glo lysis buffer (Promega, Madison, Wis.) was incubated with the PC3M-luc cells for 5 min prior to addition of HCBT and D-cysteine or luciferin. The plates were immediately imaged for 2 h to determine the peak bioluminescent signal produced.

[4] = test system: FVB-luc^+ mice; test: Signal produced from endogenous L-cysteine in mice; type: in vivo; conditions: HCBT 0.05 μmol IP without D-cysteine
Text: (§4) A Xenogen IVIS Spectrum instrument (Caliper Life Sciences, Hopkinton, Mass.) was used for bioluminescent imaging in all animal experiments. Mice were anesthetized prior to injection and during imaging via inhalation of isoflurane. Phosphate Buffered Saline (PBS) was purchased from Thermo Fisher Scientific (Waltham, Mass.), and saline (0.9%) was made from sodium chloride and Millipore water. Isoflurane was purchased from Phoenix Pharmaceuticals, Inc. (St. Joseph, Mo.), and pharmaceutical grade DMSO was purchased from Sigma-Aldrich (St. Louis, Mo.). Medical grade oxygen was purchased from Praxair (Danbury, Conn.).
(§5) FVB-luc^+ (FVB-Tg(CAG-luc,-GFP)L2G85Chco/J) mice were bred at UC Berkeley, and were single or group-housed on a 12:12 light-dark cycle at 22° C. with free access to food and water. All studies were approved and performed according to the guidelines of the Animal Care and Use Committee of the University of California, Berkeley.
Unshaven, male FVB-luc+ mice were anesthetized with isoflurane and injected IP with D-cysteine (0.05 μmol, in 20 μL of PBS) or vehicle (20 μL PBS). After 2 min, mice were injected IP with HCBT (0.05 μmol in 50 μL of 1:1 DMSO:PBS). Following injections, mice were imaged with an IVIS Spectrum.

[5] = test system: PC3M-luc cells; test: Lifetime of HCBT and D-cysteine in PC3M-luc cells; type: cell-based; conditions: 100 μM, 30 min incubation, wash, complementary reagent after 0-60 min
Method: as §1
The medium was removed from PC3M-luc cells prepared as described above, and HCBT (100 μM, 1% DMSO) or D-cysteine (100 μM, 1% PBS) in DMEM (-FBS) was added. After a 30 min incubation, the HCBT or D-cysteine was removed, the cells were washed with DMEM (-FBS), and fresh DMEM was added. After 0, 15, 30, 45, or 60 min, the second component of luciferin, D-cysteine (100 μM final concentration, 1% PBS) or HCBT (100 μM final concentration, 1% DMSO) in HBSS (25 mM glucose) was added, and the plate was immediately imaged for 2 h to determine the peak bioluminescent signal produced.

[6] = Concentration dependence of PCL-2 in aqueous solution; type: biochemical
Method: as §2
PCL-2 was incubated in Tris buffer (50 mM, pH 7.4) with various concentrations of H2O2 for 60 min prior to the addition of catalase (0.4 mg/mL), dithiothreitol (1 mM) and D-cysteine (20 μM). After an additional 15 min incubation, 100 μL of a Tris buffer (50 mM, pH 7.4) containing luciferase (100 μg/mL), 10 mM MgCl2, 0.1 mM ZnCl2, and 2 mM ATP was added to 100 μL of the PCL-2 solutions and the bioluminescent signal was detected.

[7] = test system: PC3M-luc cells; test: Concentration dependence of PCL-2 with PC3M-luc cells; type: cell-based; conditions: PCL-2 25 μM, D-cysteine 25 μM
Method: as §1
The medium was removed from PC3M-luc cells prepared as described above, and PCL-2 (25 μM, 2.5% final DMSO concentration), D-cysteine (25 μM), and H2O2 (0-100 μM final concentrations) in DMEM (-FBS) were added. The plate was immediately imaged for 2 h to determine the peak bioluminescent signal produced from PCL-2.

[8] = Kinetic analysis of the PCL-2 and H2O2 reaction; type: physicochemical; conditions: PCL-2 10 μM, H2O2 1, 2.5 or 5 mM, Tris buffer pH 8.5
Method: H2O2 (1, 2.5, or 5 mM) was added to PCL-2 (10 μM) in Tris buffer (pH 8.5) and absorbance measurements were recorded every 15-30 seconds over 5-20 minutes to determine the second order rate constant for the reaction. Measurements were taken at pH 8.5 to distinguish the HCBT peak, which shifts from 321 nm to 379 nm when it is deprotonated, from the PCL-2 peak (321 nm).

[9] = Exogenous H2O2 experiments in mice; type: in vivo
Text: as §4, §5
Unshaven, male FVB-luc^+ mice were anesthetized with isoflurane and injected IP with a mixture of PCL-2 and D-cysteine (0.05 μmol each, in 50 μL of 1:1 DMSO:PBS), followed immediately by an IP injection of H2O2 (0-4.5 μmol in 100 μL of PBS). Control mice were injected IP with a mixture of HCBT and D-cysteine (0.01 μmol each, in 50 μL of 1:1 DMSO:PBS) immediately prior to H2O2 (4.5 μmol in 100 μL of PBS). Following injections, mice were imaged with an IVIS Spectrum.

[10] = Selectivity assay for PCL-2: response to H2O2; type: biochemical; conditions: PCL-2 5 μM, H2O2 100 μM, 5-60 min, then D-cysteine and luciferase
Method: as §2, §3

[11] = Lipopolysaccharide inflammation model, H2O2 detection with PCL-2; type: in vivo, mice; conditions: LPS 3 mg/kg IP 6 h before PCL-2 and D-cysteine 0.05 μmol each
Text: as §4, §5
Unshaven, female FVB-luc^+ mice, aged 2-5 months, were anesthetized with isoflurane and injected IP with lipopolysaccharides (LPS, 3 mg/kg in 50 μL of saline) or saline (50 μL). For studies with PCL-2 alone, mice were injected IP with either apocynin (10 mg/kg in 20 μL of DMSO) or DMSO (20 μL) 6 h after LPS injection. […]

[12] = test system: FVB-luc^+ mice; test: Comparison of in situ luciferin formation and luciferin in mice; type: in vivo; conditions: 0.05 μmol luciferin IP
Text: A Xenogen IVIS Spectrum instrument (Caliper Life Sciences, Hopkinton, Mass.) was used for bioluminescent imaging in all animal experiments. Mice were anesthetized prior to injection and during imaging via inhalation of isoflurane. Phosphate Buffered Saline (PBS) was purchased from Thermo Fisher Scientific (Waltham, Mass.), and saline (0.9%) was made from sodium chloride and Millipore water. Isoflurane was purchased from Phoenix Pharmaceuticals, Inc. (St. Joseph, Mo.), and pharmaceutical grade DMSO was purchased from Sigma-Aldrich (St. Louis, Mo.). Medical grade oxygen was purchased from Praxair (Danbury, Conn.). FVB-luc^+ (FVB-Tg(CAG-luc,-GFP)L2G85Chco/J) mice were bred at UC Berkeley, and were single or group-housed on a 12:12 light-dark cycle at 22° C. with free access to food and water. All studies were approved and performed according to the guidelines of the Animal Care and Use Committee of the University of California, Berkeley. Unshaven, male FVB-luc^+ mice were anesthetized with isoflurane and injected IP with D-[…].05 or 0.5 μmol, in 20 μL of PBS) or vehicle (20 μL PBS). After 2 min, mice were injected IP with HCBT (0.05 or 0.5 μmol in 50 μL of 1:1 DMSO:PBS) or luciferin (0.05 μmol in 50 μL of 1:1 DMSO:PBS). Following injections, mice were imaged with an IVIS Spectrum.

With N#Cc1nc2ccc(O)cc2s1 [HCBT, 2-Cyano-6-hydroxybenzothiazole] the “bioluminescence from HCBT and endogenous L-cysteine compared to HCBT with D-cysteine” value [1] was “negligible production of bioluminescence”, the “bioluminescence turn-on with the same panel of ROS” value ([2]; HCBT 5 μM, ROS 100 μM incl. H2O2, 60 min) was “no bioluminescence turn-on” and the “permeability across the cell membrane compared to luciferin” value ([3]; inferred from intact versus lysed PC3M-luc cells) was “increased permeability”. For the same molecule, the “bioluminescent signal from HCBT and endogenous L-cysteine compared to D-cysteine present” value [4] was “negligible” and the “cellular lifetime: signal as time between removal and addition of the complementary reagent increases” value [5] was “decrease in luminescence”.
In the case of N#Cc1nc2ccc(OCc3ccc(B(O)O)cc3)cc2s1 [PCL-2, 4-((2-Cyanobenzo[d]thiazol-6-yloxy)methyl)phenylboronic acid], the “response to other ROS” value ([2]; 5 μM probe, ROS 100 μM (TBHP, hypochlorite, NO, OH, OtBu, O2-)) is reported as “negligible response”, the “range of linear response to H2O2” value ([6]; PCL-2 5 μM, 60 min, aqueous solution) is reported as 1-100 μM H2O2 and the “detection limit for H2O2” value ([6]; in vitro summary statement) is reported as “low micromolar”. The “range of linear response to H2O2 in cellulo” value [7] was 0-100 μM H2O2, the “second-order rate constant k for the PCL-2 and H2O2 reaction” value [8] was 2.7 M⁻¹ s⁻¹ and the Turn-on ([9]; H2O2 0.5 μmol, PCL-2 0.05 μmol) was 2.8-fold. The “detection limit for H2O2 in vivo” value ([9]; IP, FVB-luc^+ mice, optimized imaging conditions for each probe) was “ca. 0.5 μmol”, the “increase in bioluminescence in the presence of H2O2” value [10] was “ca. 50 fold” and the “turn-on in response to LPS stimulation” value [11] was “ca. 3.7 fold”.
For O=C(O)[C@H]1CSC(c2nc3ccc(O)cc3s2)=N1 [luciferin], the “brightness of signal relative to 0.05 μmol HCBT/D-cysteine” value [12] was “ca. 40 fold” and the “bioluminescent signal, luciferin versus HCBT/D-cysteine” value ([3]; intact PC3M-luc cells, lower concentrations (0-500 μM range)) was “greater signal than HCBT/D-cysteine”.
